Molecular target: T1, human LPAR1 (Homo sapiens, UniProt Q92633)
T1 construct: host or cells: CHO-K1
Test: LPAR1 intracellular calcium mobilization assay (antagonist mode)
Type: cell-based
Conditions: CHO-K1 EDG2 cells expressing human LPAR1; 60 min pre-incubation with compound, then LPA 18:2 at EC80 (100 nM); FLIPR calcium signal
Experimental: In vitro LPAR1 activity was measured in an intracellular calcium mobilization assay.
CHO-K1 EDG2 cells (DiscoverX cat #93-0644C2) expressing human LPAR1 (NM_001401.3) were seeded in a total volume of 25 μL of Dulbecco's Modification of Eagle's Medium (DMEM) with 10% Fetal Bovine Serum, 1× PenStrepGlutamine, 300 ug/ml Hygromycin, and 800 ug/ml G418 into 384-well tissue culture plate (Grenier #781091) at 15,000 cells/well and incubated at 37° C. overnight. Prior to testing, 25 μL Calcium Loading Dye Component A (FLIPR Calcium 6 Assay Kit Molecular Device #R8190) and 2.5 mM Probenecid (Invitrogen #P36400, prepared fresh) in Hank's Balanced Salt Solution (Corning #21-023-CV), 20 mM HEPES (Corning #25-060-CI), 0.1% Bovine Serum Albumin (Sigma-Aldrich #A7906-500G) was add to the cells for 60 minutes at 37° C.
Agonist dose curves of LPA 18:2 (Avanti Polar Lipids cat #857138, 0.5 nM to 10 μM) were recorded to determine the LPA 18:2 EC80 for subsequent antagonist assays. For agonist dose curves, cells were removed from the incubator 2 hours after dye loading and transferred to the FLIPR Tetra instrument (Molecular Devices, San Jose, CA). Calcium mobilization was monitored for 5 min and 10 μL 6× LPA in HBSS/20 mM Hepes/0.1% bovine serum albumin (BSA) was added to the cells 5 seconds into the assay.
To determine the LPAR1 antagonist activity of test compounds, cells were pre-incubated with test compound at a dose range of 0.5 nM to 10 μM, followed by LPA at EC80 concentration (100 nM). After dye loading, cells were removed from the incubator and 0.3 μL of 200× antagonist was added. Cells were incubated for 60 minutes at 37° C. Antagonist activity was measured on a FLIPR Tetra. Calcium mobilization was monitored for 3.5 minutes and 10 μL 6× EC80 LPA in HBSS, 20 mM HEPES, and 0.1% BSA was added to the cells 5 seconds into the assay. Signal amplitude (Maximum minus minimum) values were plotted against log10 of antagonist concentration using Dose Response Tool (Gilead Sciences Inc.) to determine EC50.
To assess the antagonistic potential of exemplified compounds EC50 values were determined for Compounds 1 to 32 in the LPAR1 calcium mobilization assay. The compound numbers correspond to the compound numbers in Examples 1 to 33.

T1 sequence (Q92633 whole entry): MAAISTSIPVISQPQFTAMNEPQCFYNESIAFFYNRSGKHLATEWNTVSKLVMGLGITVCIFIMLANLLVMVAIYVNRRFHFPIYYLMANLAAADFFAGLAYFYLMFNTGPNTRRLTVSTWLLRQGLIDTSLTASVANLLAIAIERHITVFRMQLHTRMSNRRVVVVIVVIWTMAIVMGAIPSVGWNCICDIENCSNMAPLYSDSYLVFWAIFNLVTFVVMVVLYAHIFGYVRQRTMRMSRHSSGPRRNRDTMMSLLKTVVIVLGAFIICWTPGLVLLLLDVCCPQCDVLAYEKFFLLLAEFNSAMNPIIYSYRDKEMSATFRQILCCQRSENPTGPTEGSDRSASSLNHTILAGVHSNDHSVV

| SMILES | EC50 |
| --- | --- |
| CC(OC(=O)Nc1c(-c2ccc3c(n2)OCC(=O)N3)nnn1C)c1cc(F)ncc1F (centres unmarked) [Compound 2, 1-(2,5-difluoropyridin-4-yl)ethyl(1-methyl-4-(2-oxo-2,3-dihydro-1H-pyrido[2,3-b][1,4]-oxazin-6-yl)-1H-1,2,3-triazol-5-yl)carbamate] | 1980 nM |
| C[C@@H](OC(=O)Nc1c(-c2ccc3c(c2)CC(=O)N3)nnn1C)c1ccccc1Cl [Compound 14, (R)-1-(2-chlorophenyl)ethyl(1-methyl-4-(2-oxoindolin-5-yl)-1H-1,2,3-triazol-5-yl)carbamate] | 4160 nM |
| C[C@@H](OC(=O)Nc1c(-c2ccc3c(c2F)CCC(=O)N3)nnn1C)c1cccnc1Cl [Compound 7, (R)-1-(2-chloropyridin-3-yl)ethyl (4-(5-fluoro-2-oxo-1,2,3,4-tetrahydroquinolin-6-yl)-1-methyl-1H-1,2,3-triazol-5-yl)carbamate] | 1230 nM |
| C[C@@H](OC(=O)Nc1c(-c2ccc3c(c2)C(C)(C)OC(=O)N3)nnn1C)c1cccnc1F [Compound 9, (R)-1-(2-fluoropyridin-3-yl)ethyl (4-(4,4-dimethyl-2-oxo-1,4-dihydro-2H-benzo[d][1,3]oxazin-6-yl)-1-methyl-1H-1,2,3-triazol-5-yl)carbamate] | 4610 nM |
| C[C@@H](OC(=O)Nc1c(-c2ccc3c(c2)COC(=O)N3)nnn1C)c1cccnc1Cl [Compound 16, (R)-1-(2-chloropyridin-3-yl)ethyl (1-methyl-4-(2-oxo-1,4-dihydro-2H-benzo[d][1,3]-oxazin-6-yl)-1H-1,2,3-triazol-5-yl)-carbamate] | 525 nM |
| C[C@@H](OC(=O)Nc1c(-c2ccc3[nH]c(=O)ccc3c2)nnn1C)c1ccccc1Cl [Compound 15, (R)-1-(2-chlorophenyl)ethyl(1-methyl-4-(2-oxo-1,2-dihydroquinolin-6-yl)-1H-1,2,3-triazol-5-yl)carbamate] | 565 nM |
| C[C@@H](OC(=O)Nc1c(-c2ccc3c(c2)CCC(=O)N3)nnn1C)c1cccnc1Cl [Compound 17, (R)-1-(2-chloropyridin-3-yl)ethyl (1-methyl-4-(2-oxo-1,2,3,4-tetrahydroquinolin-6-yl)-1H-1,2,3-triazol-5-yl)-carbamate] | 390 nM |
| CCC1Oc2nc(-c3nnn(C)c3NC(=O)O[C@H](C)c3cccnc3Cl)ccc2NC1=O (stereo partly drawn) [Compound 26, (R)-1-(2-chloropyridin-3-yl)ethyl (4-(3-ethyl-2-oxo-2,3-dihydro-1H-pyrido[2,3-b][1,4]oxazin-6-yl)-1-methyl-1H-1,2,3-triazol-5-yl)carbamate] | 3780 nM |
| C[C@@H](OC(=O)Nc1c(-c2ccc3c(n2)OC(C)(C)C(=O)N3)nnn1C)c1cccnc1Cl [Compound 21, (R)-1-(2-chloropyridin-3-yl)ethyl (4-(3,3-dimethyl-2-oxo-2,3-dihydro-1H-pyrido[2,3-b][1,4]oxazin-6-yl)-1-methyl-1H-1,2,3-triazol-5-yl)carbamate] | 2280 nM |
| C[C@@H](OC(=O)Nc1c(-c2cnc3c(c2)OCC(=O)N3)nnn1C)c1cccnc1Cl [Compound 8, (R)-1-(2-chloropyridin-3-yl)ethyl (1-methyl-4-(3-oxo-3,4-dihydro-2H-pyrido[3,2-b][1,4]oxazin-7-yl)-1H-1,2,3-triazol-5-yl)carbamate] | 765 nM |
| C[C@@H](OC(=O)Nc1c(-c2nc3c(cc2F)NC(=O)CO3)nnn1C)c1cccnc1Cl [Compound 28, (R)-1-(2-chloropyridin-3-yl)ethyl (4-(7-fluoro-2-oxo-2,3-dihydro-1H-pyrido[2,3-b][1,4]oxazin-6-yl)-1-methyl-1H-1,2,3-triazol-5-yl)carbamate] | 660 nM |

Compounds with a lower EC50, results first:

| EC50 | SMILES |
| --- | --- |
| 265 nM | C[C@@H](OC(=O)Nc1c(-c2ccc3c(c2)OCC(=O)N3)nnn1C)c1cccnc1Cl [Compound 18, (R)-1-(2-chloropyridin-3-yl)ethyl (1-methyl-4-(3-oxo-3,4-dihydro-2H-benzo[b][1,4]-oxazin-7-yl)-1H-1,2,3-triazol-5-yl)-carbamate] |
| 265 nM | C[C@@H](OC(=O)Nc1c(-c2ccc3c(c2)N(C)CC(=O)N3)nnn1C)c1ccccc1Cl [Compound 19, (R)-1-(2-chlorophenyl)ethyl (1-methyl-4-(4-methyl-2-oxo-1,2,3,4-tetrahydroquinoxalin-6-yl)-1H-1,2,3-triazol-5-yl)carbamate] |
| 218 nM | C[C@@H](OC(=O)Nc1c(-c2ccc3c(c2)COC(=O)N3)nnn1C)c1ccccc1Cl [Compound 12, (R)-1-(2-chlorophenyl)ethyl(1-methyl-4-(2-oxo-1,4-dihydro-2H-benzo[d][1,3]-oxazin-6-yl)-1H-1,2,3-triazol-5-yl)-carbamate] |
| 140 nM | C[C@@H](OC(=O)Nc1c(-c2ccc3c(n2)COC(=O)N3)nnn1C)c1cccnc1Cl [Compound 25, [(1R)-1-(2-chloro-3-pyridyl)ethyl] N-[3-methyl-5-(2-oxo-1,4-dihydropyrido[3,2-d][1,3]oxazin-6-yl)triazol-4-yl]carbamate] |
| 123 nM | C[C@@H](OC(=O)Nc1c(-c2ccc3c(n2)OCC(=O)N3)nnn1C)c1cccnc1Cl [Compound 24, (R)-1-(2-chloropyridin-3-yl)ethyl (1-methyl-4-(2-oxo-2,3-dihydro-1H-pyrido[2,3-b][1,4]oxazin-6-yl)-1H-1,2,3-triazol-5-yl)carbamate] |
| 118 nM | C[C@@H](OC(=O)Nc1c(-c2ccc3c(c2)CCC(=O)N3)nnn1C)c1cc(F)cnc1Cl [Compound 20, (R)-1-(2-chloro-5-fluoropyridin-3-yl)ethyl (1-methyl-4-(2-oxo-1,2,3,4-tetrahydroquinolin-6-yl)-1H-1,2,3-triazol-5-yl)carbamate] |
| 118 nM | C[C@@H](OC(=O)Nc1c(-c2ccc3c(n2)OCC(=O)N3)nnn1C)c1cc(Cl)cnc1F [Compound 4, (R)-1-(5-chloro-2-fluoropyridin-3-yl)-ethyl(1-methyl-4-(2-oxo-2,3-dihydro-1H-pyrido[2,3-b][1,4]-oxazin-6-yl)-1H-1,2,3-triazol-5-yl)-carbamate] |
| 115 nM | C[C@@H](OC(=O)Nc1c(-c2cc3c(cc2F)NC(=O)CC3)nnn1C)c1cccnc1Cl [Compound 6, [(1R)-1-(2-chloro-3-pyridyl)ethyl] N-[5-(7-fluoro-2-oxo-3,4-dihydro-1H-quinolin-6-yl)-3-methyl-triazol-4-yl]carbamate] |
| 100 nM | Cn1nnc(-c2ccc3c(n2)OCC(=O)N3)c1NC(=O)O[C@H](CF)c1ccccc1 [Compound 5, (S)-2-fluoro-1-phenylethyl (1-methyl-4-(2-oxo-2,3-dihydro-1H-pyrido[2,3-b][1,4]-oxazin-6-yl)-1H-1,2,3-triazol-5-yl)-carbamate] |
| 86 nM | CC1Oc2nc(-c3nnn(C)c3NC(=O)O[C@H](C)c3cccnc3Cl)ccc2NC1=O (stereo partly drawn) [Compound 22, (R)-1-(2-chloropyridin-3-yl)ethyl (1-methyl-4-(3-methyl-2-oxo-2,3-dihydro-1H-pyrido[2,3-b][1,4]oxazin-6-yl)-1H-1,2,3-triazol-5-yl)carbamate] |
| 85 nM | C[C@@H](OC(=O)Nc1c(-c2ccc3c(n2)OCC(=O)N3)nnn1C)c1cc(F)cnc1Cl [Compound 1, (R)-1-(2-chloro-5-fluoropyridin-3-yl)ethyl (1-methyl-4-(2-oxo-2,3-dihydro-1H-pyrido[2,3-b][1,4]oxazin-6-yl)-1H-1,2,3-triazol-5-yl)carbamate] |
| 66 nM | C[C@@H](OC(=O)Nc1c(-c2ccc3c(n2)OCC(=O)N3)nnn1C)c1cc(F)cnc1F [Compound 3, (R)-1-(2,5-difluoropyridin-3-yl)ethyl(1-methyl-4-(2-oxo-2,3-dihydro-1H-pyrido-[2,3-b][1,4]oxazin-6-yl)-1H-1,2,3-triazol-5-yl)carbamate] |
| 46 nM | C[C@@H](OC(=O)Nc1c(-c2ccc3c(c2)CCC(=O)N3)nnn1C)c1ccccc1Cl [Compound 11, (R)-1-(2-chlorophenyl)ethyl (1-methyl-4-(2-oxo-1,2,3,4-tetrahydroquinolin-6-yl)-1H-1,2,3-triazol-5-yl)carbamate] |
| 38 nM | C[C@@H](OC(=O)Nc1c(-c2ccc3c(c2)OCC(=O)N3)nnn1C)c1ccccc1Cl [Compound 13, (R)-1-(2-chlorophenyl)ethyl(1-methyl-4-(3-oxo-3,4-dihydro-2H-benzo[b][1,4]-oxazin-7-yl)-1H-1,2,3-triazol-5-yl)-carbamate] |
| 5 nM | C[C@@H](OC(=O)Nc1c(-c2cc(F)c3c(c2)CCC(=O)N3)nnn1C)c1cccnc1Cl [Compound 29, (R)-1-(2-chloropyridin-3-yl)ethyl (4-(8-fluoro-2-oxo-1,2,3,4-tetrahydroquinolin-6-yl)-1-methyl-1H-1,2,3-triazol-5-yl)carbamate] |

From patent US12139474B2, “LPA receptor antagonists and uses thereof” (Gilead Sciences, Inc., priority 2020, dated 2024)
